Molecular target: T1, integrin α4β1 (Jurkat cells) binding with recombinant human VCAM-1 (Homo sapiens, UniProt P05556+P13612)
T1 construct: cell strain Jurkat (ATCC TIB-152) of human T cells, known to express integrin α4β1; endogenous in cells; host or cells: Jurkat (ATCC TIB-152), human T cells
Assay: VCAM antagonistic activity (VCAM-1/α4β1 binding assay), Jurkat cell adhesion
Type: cell-based
Settings: read-out: VCAM/α 4 β 1 antagonistic activity to integrin (IC50)
Description: (Test Example) VCAM Antagonistic Activity (VCAM-1/α4β1 Binding Assay):
The capacity of a test substance antagonistic to the binding of cell strain Jurkat (ATCC TIB-152) of human T cells, known to express integrin α4β1, with VCAM-1 was determined. 100 μl/well of a solution (500 ng/ml ) of recombinant human VCAM-1 (R & D systems) diluted with buffer A (0.1 M NaHCO3, pH 9.6) was added to a micro titer plate having 96 wells (Nunc Maxisorp). After the incubation at 4° C. overnight, unbound VCAM-1 was removed by once washing with PBS. After completion of the washing, a buffer (buffer B) obtained by diluting Block Ace® (Dainippon Pharmaceutical Co., Ltd.) with PBS to 1/4 concentration was added in an amount of 150 μl /well. After the incubation at room temperature for 1 hour, buffer B was removed and the plate was washed with PBS once.
Jurkat cells were washed with Dulbecco modified Eagle medium (SIGMA, hereinafter referred to as “DMEM”) twice and then incubated in DMEM containing 10 μg/ml of Calcein-AM (Wako Pure Chemical Industries, Ltd.) at 37° C. in dark place for 30 minutes to label them with fluorescence. The cells were again suspended in a binding buffer (DMEM containing 20 mM HEPES, 0.1% BSA).
50 μl of a test substance of various concentrations obtained by the dilution with the binding buffer was added to the plate. Immediately thereafter, 50 μl (final volume: 100 μl/well) of the fluorescent Jurkat cells (4×10^6 cells/ml ) were added thereto, and they were incubated at room temperature for 30 minutes. After the shaking on a plate shaker (IKA MTS-4) at 800 rpm for 30 seconds, the solution was immediately removed to remove the unbound cells. The fluorescence quantity of the bound cells remaining in the wells was determined with a fluorescent plate reader (Wallac 1420 ARVO multi-label counter) (filter excitation wave length: 485 nm, emission wave length: 535 nm). The fluorescent strength thus obtained is proportional to the number of Jurkat cells bound to VCAM-1 and remaining on the plate. The binding rate of each test material in various concentrations was determined while the fluorescent strength of the test material-free well was determined to be 100%. The concentration IC50 for the 50% binding inhibition was calculated.

T1 sequence (P13612 34-1032): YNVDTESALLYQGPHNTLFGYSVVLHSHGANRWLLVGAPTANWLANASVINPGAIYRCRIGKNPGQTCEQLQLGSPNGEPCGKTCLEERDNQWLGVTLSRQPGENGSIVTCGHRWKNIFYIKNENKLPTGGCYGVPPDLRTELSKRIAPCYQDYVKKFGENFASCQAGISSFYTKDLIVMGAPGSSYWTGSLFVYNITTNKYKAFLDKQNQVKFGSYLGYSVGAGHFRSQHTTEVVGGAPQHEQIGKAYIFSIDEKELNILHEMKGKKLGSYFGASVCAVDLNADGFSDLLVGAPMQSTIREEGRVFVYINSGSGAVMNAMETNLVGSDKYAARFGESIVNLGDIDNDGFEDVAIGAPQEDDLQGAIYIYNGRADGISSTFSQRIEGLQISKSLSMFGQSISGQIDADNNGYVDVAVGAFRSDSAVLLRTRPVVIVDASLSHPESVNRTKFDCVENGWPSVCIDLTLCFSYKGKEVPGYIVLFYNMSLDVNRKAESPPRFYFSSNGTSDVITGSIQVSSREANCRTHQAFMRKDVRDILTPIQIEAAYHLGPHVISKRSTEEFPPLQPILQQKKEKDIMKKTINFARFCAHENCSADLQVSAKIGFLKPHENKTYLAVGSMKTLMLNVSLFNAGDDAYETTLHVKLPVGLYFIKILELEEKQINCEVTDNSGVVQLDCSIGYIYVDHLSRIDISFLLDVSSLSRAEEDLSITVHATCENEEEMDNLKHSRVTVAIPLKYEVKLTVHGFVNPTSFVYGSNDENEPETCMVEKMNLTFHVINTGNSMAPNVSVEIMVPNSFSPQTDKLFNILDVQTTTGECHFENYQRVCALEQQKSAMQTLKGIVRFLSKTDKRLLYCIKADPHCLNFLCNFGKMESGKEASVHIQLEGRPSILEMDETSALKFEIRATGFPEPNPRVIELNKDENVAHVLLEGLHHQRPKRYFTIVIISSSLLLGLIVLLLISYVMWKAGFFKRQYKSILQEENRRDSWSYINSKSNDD
T1 sequence (P05556 21-798): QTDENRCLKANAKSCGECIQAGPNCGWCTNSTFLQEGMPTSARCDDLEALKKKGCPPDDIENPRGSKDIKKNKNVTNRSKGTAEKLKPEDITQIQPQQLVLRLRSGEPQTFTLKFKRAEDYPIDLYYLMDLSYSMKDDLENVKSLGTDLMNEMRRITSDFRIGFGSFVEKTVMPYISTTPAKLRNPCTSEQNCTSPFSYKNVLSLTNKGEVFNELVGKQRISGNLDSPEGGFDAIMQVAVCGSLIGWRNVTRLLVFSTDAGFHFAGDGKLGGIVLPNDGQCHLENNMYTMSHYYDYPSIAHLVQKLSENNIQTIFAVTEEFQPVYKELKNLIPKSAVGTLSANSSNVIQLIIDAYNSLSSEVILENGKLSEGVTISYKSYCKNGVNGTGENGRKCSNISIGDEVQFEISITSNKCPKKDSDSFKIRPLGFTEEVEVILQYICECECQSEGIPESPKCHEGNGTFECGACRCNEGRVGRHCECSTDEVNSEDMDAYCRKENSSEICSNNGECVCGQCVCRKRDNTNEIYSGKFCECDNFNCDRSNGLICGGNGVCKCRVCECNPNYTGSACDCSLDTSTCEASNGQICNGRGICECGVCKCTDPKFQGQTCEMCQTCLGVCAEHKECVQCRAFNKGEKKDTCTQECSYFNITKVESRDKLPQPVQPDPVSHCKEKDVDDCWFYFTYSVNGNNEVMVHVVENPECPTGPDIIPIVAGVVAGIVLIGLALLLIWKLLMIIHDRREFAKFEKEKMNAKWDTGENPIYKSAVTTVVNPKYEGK

SMILES | IC50
O=C(O)[C@H](Cc1ccc(OCc2c(Cl)cccc2Cl)cc1)NC(=O)[C@H]1CC[C@H](C(=O)O)CC1 [Example 2, N-(Trans-4-carboxycyclohexane-1-carbonyl)-O-(2,6-dichlorobenzyl)-L-tyrosine] | 5 to 25 µM
O=C(O)[C@H](Cc1ccc(OCc2c(Cl)cccc2Cl)cc1)NC(=O)[C@H]1CC[C@H](C(=O)NNc2ccccc2)CC1 [Example 3, N-(Trans-4-phenylhydrazinocarbonylcyclohexane-1-carbonyl)-O-(2,6-dichlorobenzyl)-L-tyrosine] | 25 to 50 µM
O=C(O)[C@H](Cc1ccc(OCc2c(Cl)cccc2Cl)cc1)NC(=O)[C@H]1CC[C@H](C(=O)NNc2ccc(Br)cc2)CC1 [Example 4, N-[Trans-4-(4-bromophenylhydrazinocarbonyl)cyclohexane-1-carbonyl]-O-(2,6-dichlorobenzyl)-L-tyrosine] | 25 to 50 µM
O=C(O)[C@H](Cc1ccc(OCc2c(Cl)cccc2Cl)cc1)NC(=O)[C@H]1CC[C@H](C(=O)NCc2ccccc2)CC1 [Example 6] | 25 to 50 µM
O=C(O)[C@H](Cc1ccc(OCc2c(Cl)cccc2Cl)cc1)NC(=O)[C@H]1CC[C@H](C(=O)NNc2ccc(OC(F)(F)F)cc2)CC1 [Example 35] | 25 to 50 µM
COc1cccc(NNC(=O)[C@H]2CC[C@H](C(=O)N[C@@H](Cc3ccc(OCc4c(Cl)cccc4Cl)cc3)C(=O)O)CC2)c1 [Example 44] | 5 to 25 µM
COc1ccc(NNC(=O)[C@H]2CC[C@H](C(=O)N[C@@H](Cc3ccc(NC(=O)c4snnc4-c4ccccc4)cc3)C(=O)O)CC2)cc1 [Example 46, N-[Trans-4-(4-methoxyphenylhydrazinocarbonyl)cyclohexane-1-carbonyl]-4-{[(4-phenyl-1,2,3-thiadiazole-5-yl)carbonyl]amino}-L-phenyl-alanine] | 5 to 25 µM

Results, then the molecule that gave them:

IC50 | SMILES
1 to 5 µM | COc1ccc(NNC(=O)[C@H]2CC[C@H](C(=O)N[C@@H](Cc3ccc(OCc4c(Cl)cccc4Cl)cc3)C(=O)O)CC2)cc1 [Example 14]
1 to 5 µM | Cc1ccc(NNC(=O)[C@H]2CC[C@H](C(=O)N[C@@H](Cc3ccc(OCc4c(Cl)cccc4Cl)cc3)C(=O)O)CC2)cc1 [Example 34]
1 to 5 µM | O=C(Nc1ccc(C[C@H](NC(=O)[C@H]2CC[C@H](C(=O)O)CC2)C(=O)O)cc1)c1snnc1-c1ccccc1 [Example 45, N-(Trans-4-carboxycyclohexane-1-carbonyl)-4-{[(4-phenyl-1,2,3-thiadiazole-5-yl)carbonyl]amino}-L-phenylalanine]
1 to 5 µM | COc1cccc(OC)c1-c1ccc(C[C@H](NC(=O)[C@H]2CC[C@H](C(=O)O)CC2)C(=O)O)cc1 [Example 50, N-(Trans-4-carboxycyclohexane-1-carbonyl)-4-(2,6-dimethoxyphenyl)-L-phenylalanine]
1 to 5 µM | COc1ccc(NNC(=O)[C@H]2CC[C@H](C(=O)N[C@@H](Cc3ccc(-c4c(OC)cccc4OC)cc3)C(=O)O)CC2)cc1 [Example 51, N-[Trans-4-(4-methoxyphenylhydrazinocarbonyl)cyclohexane-1-carbonyl]-4-(2,6-dimethoxyphenyl)-L-phenylalanine]
